Read-outs that look alike come from different tables or passages of the source.
How the values were obtained:
Type in all cases: in vivo, SD rats
Fas = Fas determination (immunohistochemical method), cerebral ischemic reperfusion MCAO model
Procedure: (§1) Rats were intraperitoneally injected with 10% chloral hydrate 350 mg/kg after anesthesia and opened up at the center of the neck in accordance with the Zea Longa modified method. The right common carotid artery was separated, and the right external carotid artery branches was ligated. A small opening was made at the distal end of the external carotid artery, and a previously prepared thread was inserted through the common carotid artery and the external carotid artery bifurcation into the internal carotid artery, till the anterior end of the middle cerebral artery, with an immersed depth of 18 to 19 mm. The thread was then secured, and the wound was sutured layer by layer. After the operation, the rats were placed in a clean incubator to wake up. […] The sham operation group, the ischemic reperfusion group, and the Example groups were prepared strictly according to the requirements of the cerebral ischemic reperfusion model, while in the sham operation group the thread was put only into the external carotid artery. The animals were allowed to eat and drink freely after waking up. After 2 h, the thread was pulled out to achieve reperfusion. The sham operation group, the ischemic reperfusion group, and the Example groups were administered intravenously the aqueous solution of the biphenyl derivatives in PEG400 at 40 mg/kg (40 mg/kg means that 40 mg of the test compound per kg of the body weight of rats) 30 min before reperfusion and 12 h after reperfusion, respectively. The sham operation group and the ischemic reperfusion group were injected with the same amount of blank PEG400 aqueous solution at the same time point.
(§2) 24 hours after reperfusion, 8 rats in each group were sacrificed by decapitation, the brain was removed, rinsed with PBS (pH 7.4) at −20° i for 20 min, evenly sliced (with a thickness of 2 mm), stained in a 2% TTC solution at 37°% in the dark for 30 min, fixed in 10% formalin for 24 h, and photographs were taken to analyze the infarct volume. A mixture of femoral arterial and venous blood was drawn from another 8 rats in each group under anesthesia, placed in a low temperature centrifuge at 4° C., centrifuged at 3500 r/min for 20 min, and the supernatant was stored in a refrigerator at −20° C. ready for SOD and MDA detection. After the blood was drawn, a perfusion needle was insert through the apex to the ascending aorta, and saline at 4° C. was rapid infused until the effluent became clear, followed by 4% paraformaldehyde phosphate buffer perfusion for fixation; the brain was removed by craniotomy, and brain tissues 2 mm in front of and behind the optic chiasma were taken and fixed, dehydrated, rendered transparent, impregnated in wax, and embedded. Brain continuous coronary tissue pathological sections were consecutively cut for later use. The remaining 8 rats in each group were sacrificed, brains were removed, the ischemic brain hemispheres were immediately taken on an ice tray, and 10% brain tissue homogenate was prepared for the detection of IL-1β and TNF-α.
The immunohistochemical method was used for determination. Brain tissue paraffin sections were dewaxed into water, washed with 3% H2O2 to eliminate endogenous peroxidase activity, and rinsed with distilled water for 3 times. Sodium citrate buffer was used for antigen heat repairing, and blocking with calf serum was carried out at room temperature for 15 min; a rabbit anti-mouse Fas antibody was added dropwise, allowed to stand at 4°t overnight, biotinylated goat anti-rabbit IgG was added dropwise, and heated in a water bath at 37°a for 20 min. Washing with PBS for 5 min was continuously repeated 4 times, followed by staining with DAB and sufficient washing without counterstaining. The sections were then gradient dehydrated with alcohol, made transparent with toluene, sealed and fixed. Images were captured by a video camera under high-power optical microscope and inputted into the image analysis system for image analysis. […]

[1] = tested on: rats with permanent cerebral ischemia injury; assay: Relative infarct volume (TTC, imageJ), permanent cerebral ischemia model; settings: for Relative Brain infarction volume (%): 40 mg/kg intravenously 30 min before insertion of thread and 12 h after embolism, 24 h after the embolism
Procedure: as §1, with “the permanent cerebral ischemia model” for “the ischemic reperfusion”, “up.” for “up. After 2 h, the thread was pulled out to achieve reperfusion.”, “before insertion of thread” for “before reperfusion”, “after embolism,” for “after reperfusion,”
as §2, with “the embolism,” for “reperfusion,”, “−20°i” for “−20° i”
The infarct area in each brain section was analyzed and quantified by the imageJ image software, and the ratio of cerebral infarction volume in the overall brain volume was calculated.

[2] = tested on: rats with cerebral ischemic reperfusion injury
Procedure: 336 healthy male SD rats weighing 250-300 g, provided by the Experimental Animal Center of the Fourth Military Medical University, were randomly divided into 14 groups: the sham operation group, the ischemic reperfusion group, and Examples 1-12 groups (i.e., the Example groups).
as §1
The neurological impairment was scored in each group 24 h after reperfusion. The scoring was in accordance with the Longa 5-grade method: grade 0: no nerve injury symptom; grade 1: inability of stretching the contralateral forepaw; grade 2: circling to the opposite side; grade 3: tumbling to the opposite side; grade 4: no autonomous activity with loss of consciousness.

[3] = ischemic reperfusion MCAO rats, 40 mg/kg intravenously, brain sections 24 h after reperfusion, gray scale inversely proportional to positive expression
[4] = ischemic reperfusion MCAO rats, 40 mg/kg intravenously 30 min before and 12 h after reperfusion, scored 24 h after reperfusion, Longa grade 0-4

Molecule	Fas average gray scale (Fas; [3])	Relative Brain infarction volume (%) [1] [%]	Average score of neurological impairment [2, 4]	other results
CC(C)c1cc(-c2cc(C(C)C)c(C(=O)O)c(C(C)C)c2)cc(C(C)C)c1O [Example 8 group, 4′-hydroxy-3,3′,5,5′-tetraisopropylbiphenyl-4-carboxylic acid]	148.82 ± 7.62	29.74 ± 3.13	2.3	–
CCCc1cc(-c2cc(CCC)c(O)c(C(C)C)c2)cc(C(C)C)c1O [Example 6 group, 4,4′-dihydroxy-3,3′-diisopropyl-5,5′-dipropylbiphenyl]	155.33 ± 3.78	22.53 ± 4.62	2.0	–
CC(C)c1cc(-c2cc(C(C)C)c(OC(=O)C(N)C(C)C)c(C(C)C)c2)cc(C(C)C)c1O (centres unmarked) [Example 11 group, 4′-hydroxy-3,3′,5,5′-tetraisopropylbiphenyl-2-amino-3-methylbutyrate]	152.12 ± 6.17	28.98 ± 5.24	2.2	–
CC(=O)Oc1c(C(C)C)cc(-c2cc(C(C)C)c(O)c(C(C)C)c2)cc1C(C)C [Example 1 group, 4′-hydroxy-3,3′,5,5′-tetraisopropylbiphenyl-4-acetate]	–	–	2.0	Relative Brain infarction volume (%) ([1]; 40 mg/kg): 24.71 ± 3.76 %
3,3′,5,5′-tetraisopropylbiphenyl-4,4′-bis(oxymethylene phosphate) [Example 3 group]	–	–	2.4	Fas average gray scale (Fas; rat, in vivo, iv, 40 mg/kg): 144.56 ± 6.32
CCCc1cc(-c2cc(CCC)c(O)c(CCC)c2)cc(CCC)c1O [Example 7 group, 4,4′-dihydroxy-3,3′,5,5′-tetrapropylbiphenyl]	157.26 ± 4.05	21.39 ± 4.01	2.1	–
CC(C)c1cc(-c2cc(C(C)C)c(OC(=O)CCC(=O)O)c(C(C)C)c2)cc(C(C)C)c1O [Example 5 group, [4-(4′-hydroxy-3,3′,5,5′-tetraisopropylbiphenyl)oxy]-4-carbonyl butyric acid]	148.02 ± 4.16	28.37 ± 5.02	2.2	–
CC(C)c1cc(-c2cc(C(C)C)c(Cl)c(C(C)C)c2)cc(C(C)C)c1O [Example 9 group, 4-chloro-4′-hydroxy-3,3′,5,5′-tetraisopropylbiphenyl]	–	–	–	Fas average gray scale (Fas; rat, in vivo, iv, 40 mg/kg): 147.11 ± 5.61; Average score of neurological impairment ([2]; rat, in vivo, iv, 40 mg/kg): 2.4
CC1=NN(c2ccccc2)C(=O)C1 [Edaravone injection, edaravone, reference compound]	–	–	–	Fas average gray scale (Fas; ischemic reperfusion rat model, edaravone 3 mg/kg): 139.65 ± 2.05; Brain relative infarct volume (%) ([1]; edaravone 3 mg/kg): 31.29 ± 4.02 %
CC(=O)OC(C)Oc1c(C(C)C)cc(-c2cc(C(C)C)c(O)c(C(C)C)c2)cc1C(C)C (centres unmarked) [Example 12 group, Ethyl 1-(4′-hydroxy-3,3′,5,5′-tetraisopropylbiphenyl-4-oxo)acetate]	144.26 ± 3.47	31.79 ± 5.94	2.4	–
CC(C)c1cc(-c2cc(C(C)C)c(OC=O)c(C(C)C)c2)cc(C(C)C)c1O [Example 10 group]	145.06 ± 4.08	26.46 ± 4.52	2.2	–
CC(=O)Oc1c(C(C)C)cc(-c2cc(C(C)C)c(OC(C)=O)c(C(C)C)c2)cc1C(C)C [Example 2 group, 3,3′,5,5′-tetraisopropylbiphenyl-4′-diacetate]	148.36 ± 5.33	27.92 ± 4.51	2.1	–

Source: patent US10329243B2, “Biphenyl derivative and uses thereof” (XI'AN LIBANG PHARMACEUTICAL CO., LTD, priority 2015, dated 2019)
